In patent US8293768B2, “Organic compounds” (Novartis AG, priority 2006, dated 2012):

melting point | SMILES
173 to 175 °C | Cc1nc(N2CCN(Cc3ccc(F)cc3)C2=O)sc1C(=O)NCc1cnn(C)c1 [Example 32.13, 2-(3-(4-fluorobenzyl)-2-oxoimidazolidin-1-yl)-4-methyl-N-((1-methyl-1H-pyrazol-4-yl)methyl)thiazole-5-carboxamide]
166 to 167 °C | Cc1nc(N2CCN(Cc3ccc(OC(F)F)cc3)C2=O)sc1C(=O)NCc1cccnc1 [Example 9.24, 2-(3-(4-(difluoromethoxy)benzyl)-2-oxoimidazolidin-1-yl)-4-methyl-N-(pyridin-3-ylmethyl)thiazole-5-carboxamide]
109 to 111 °C | CCCN1CCN(c2nc(C)c(C(=O)NCc3cccnc3)s2)C1=O [Example 9.40, 4-methyl-2-(2-oxo-3-propylimidazolidin-1-yl)-N-(pyridin-3-ylmethyl)thiazole-5-carboxamide]
160 to 162 °C | Cc1nc(-n2ccn(CCc3ccc(F)cc3)c2=O)sc1C(=O)NCc1cccnc1 [Example 17.1, 2-(3-(4-fluorophenethyl)-2-oxo-2,3-dihydro-1H-imidazol-1-yl)-4-methyl-N-(pyridin-3-ylmethyl)thiazole-5-carboxamide]
146 to 147 °C | Cc1nc(N2CCN(CCC3CC3)C2=O)sc1C(=O)NCc1cccnc1 [Example 9.26, 2-(3-(2-cyclopropylethyl)-2-oxoimidazolidin-1-yl)-4-methyl-N-(pyridin-3-ylmethyl)thiazole-5-carboxamide]
142 to 143 °C | Cc1nc(N2CCN(CC3CC3)C2=O)sc1C(=O)NCc1ccccc1 [Example 9.14, N-benzyl-2-(3-(cyclopropylmethyl)-2-oxoimidazolidin-1-yl)-4-methylthiazole-5-carboxamide]
146 to 147 °C | Cc1nc(N2CCN(CC3CC3)C2=O)sc1C(=O)NCc1ccc(F)cc1 [Example 9.15, 2-(3-(cyclopropylmethyl)-2-oxoimidazolidin-1-yl)-N-(4-fluorobenzyl)-4-methylthiazole-5-carboxamide]
178 to 179 °C | Cc1nc(N2CCN(Cc3ccc(Cl)cc3)C2=O)sc1C(=O)NCc1cccnc1 [Example 9.28, 2-(3-(4-chlorobenzyl)-2-oxoimidazolidin-1-yl)-4-methyl-N-(pyridin-3-ylmethyl)thiazole-5-carboxamide]

The remaining lines, values behind:

SMILES | melting point
Cc1csc(N2CCN(Cc3ccc(C(=O)n4nccc4C)cc3)C2=O)n1 [Example 8.8, 1-(4-(5-methyl-1H-pyrazole-1-carbonyl)benzyl)-3-(4-methylthiazol-2-yl)imidazolidin-2-one] | 96 to 97 °C
Cc1cc(N2CCN(Cc3ccc(N)cc3)C2=O)sc1C(=O)NCc1cccnc1 [Example 58, 5-(3-(4-aminobenzyl)-2-oxoimidazolidin-1-yl)-3-methyl-N-(pyridin-3-ylmethyl)thiophene-2-carboxamide] | 118 to 120 °C
Cc1nc(N2CCN(Cc3ccc(OC(F)(F)F)cc3)C2=O)sc1C(=O)NCCC1CC1 [Example 8.3, N-(2-cyclopropylethyl)-4-methyl-2-(2-oxo-3-(4-(trifluoromethoxy)benzyl)imidazolidin-1-yl)thiazole-5-carboxamide] | 195 to 196 °C
Cc1nc(N2CCN(CCCc3ccccc3)C2=O)sc1C(=O)O [Example 6.12, 4-methyl-2-(2-oxo-3-(3-phenylpropyl)imidazolidin-1-yl)thiazole-5-carboxylic acid] | 218 to 221 °C
CCNC(=O)c1sc(N2CCN(Cc3ccc(OC(F)(F)F)cc3)C2=O)nc1C [Example 8.2, N-ethyl-4-methyl-2-(2-oxo-3-(4-(trifluoromethoxy)benzyl)imidazolidin-1-yl)thiazole-5-carboxamide] | 218 to 219 °C
Cc1cc(N2CCN(CCOc3ccccc3)C2=O)sc1C(=O)NCc1cccnc1 [Example 55, 3-methyl-5-(2-oxo-3-(2-phenoxyethyl)imidazolidin-1-yl)-N-(pyridin-3-ylmethyl)thiophene-2-carboxamide] | 78 to 80 °C
